PMC6522912, “Evaluation of the published kinase inhibitor set to identify multiple inhibitors of bacterial ATP-dependent mur ligases” (Journal of Enzyme Inhibition and Medicinal Chemistry, 2019)
Like-named read-outs stand apart in the source and are kept apart here.

Key:
E. coli MurD = E. coli MurD (Escherichia coli, UniProt P14900); test: biochemical; details: for remaining activity at 100 µM: 0.25 h, Table S1, PKIS screening, read-out: RA [%] at 100 µM MurD
Description: (§1) Inhibition of the Mur ligases was determined using the malachite green assay, with slight modifications.
(§2) In all cases, the final concentration of DMSO was 5% (v/v). After incubation for 15 min at 37 °C, the enzyme reaction was terminated by addition of 100 µM Biomol green reagent, and the absorbance was measured at 650 nm after 5 min. All of the experiments were run in duplicate. Residual activities were calculated with respect to control assays without the tested compounds, but with the 5% DMSO carrier.
(§3) The published kinase inhibitor set compounds were evaluated for inhibition of MurC, D and F ligases from E. coli using the Malachite green assay, which detects orthophosphate generated during enzymatic reactions. To avoid non-specific inhibition due to aggregate formation, all of the compounds were tested in the presence of detergent (0.005% Triton-X114). The data are presented as the residual activities of these Mur ligases in the presence of 100 µM of each test compound (Supporting Information Table S1).

E. coli MurF = E. coli MurF (Escherichia coli, UniProt P11880); test: biochemical; details: for remaining activity at 100 µM: 0.25 h, read-out: RA [%] at 100 µM MurF; for remaining activity at 100 µM / RA [%] at 100 µM MurF: Table S1, PKIS screening; for RA (%) MurF: Table S3, aza stilbene compounds
E. coli MurF, sequence (P11880 whole entry): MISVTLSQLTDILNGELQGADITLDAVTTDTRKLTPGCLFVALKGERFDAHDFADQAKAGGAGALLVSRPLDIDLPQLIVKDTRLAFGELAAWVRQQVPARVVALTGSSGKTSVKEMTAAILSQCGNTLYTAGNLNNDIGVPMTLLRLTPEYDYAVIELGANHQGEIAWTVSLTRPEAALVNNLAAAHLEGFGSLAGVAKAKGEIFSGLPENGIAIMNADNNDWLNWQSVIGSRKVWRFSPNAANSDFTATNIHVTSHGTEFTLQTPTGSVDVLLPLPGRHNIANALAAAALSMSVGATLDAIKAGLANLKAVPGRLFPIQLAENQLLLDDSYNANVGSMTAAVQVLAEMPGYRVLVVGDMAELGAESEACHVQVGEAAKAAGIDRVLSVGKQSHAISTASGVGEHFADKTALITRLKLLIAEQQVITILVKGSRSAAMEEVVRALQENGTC
Description: as §1, §2
as §3, with “S1). […] Additionally, regarding the data of profiled compounds in large panels of human kinase assays[41]” for “S1).”

E. coli MurC = E. coli MurC (Escherichia coli, UniProt P17952); test: Malachite green inhibition assay, MurC; format: biochemical; details: for remaining activity at 100 µM: 0.25 h; for RA (%) MurC: Table S3, aza stilbene compounds
E. coli MurC, sequence (P17952 whole entry): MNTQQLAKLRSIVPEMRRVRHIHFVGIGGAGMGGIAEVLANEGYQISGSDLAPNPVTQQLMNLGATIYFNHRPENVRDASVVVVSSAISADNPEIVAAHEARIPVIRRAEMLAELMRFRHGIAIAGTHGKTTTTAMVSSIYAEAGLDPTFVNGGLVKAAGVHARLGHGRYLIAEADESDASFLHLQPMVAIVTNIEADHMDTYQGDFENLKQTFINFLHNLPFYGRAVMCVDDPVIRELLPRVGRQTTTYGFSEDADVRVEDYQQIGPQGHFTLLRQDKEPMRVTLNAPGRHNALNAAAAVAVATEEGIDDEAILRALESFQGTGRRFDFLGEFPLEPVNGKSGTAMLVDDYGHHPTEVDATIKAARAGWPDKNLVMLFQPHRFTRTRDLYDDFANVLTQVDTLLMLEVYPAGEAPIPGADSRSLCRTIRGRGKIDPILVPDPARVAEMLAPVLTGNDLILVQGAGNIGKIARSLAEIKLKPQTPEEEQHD
Description: as §1, §2
as §3, with “S1). […] Additionally, regarding the data of profiled compounds in large panels of human kinase assays[41]” for “S1).”

[1] = Table S1, PKIS screening, read-out: RA [%] at 100 µM MurC
[2] = read-out: RA [%] at 100 µM MurC, Table S1, PKIS screening

E. coli MurD, sequence (P14900 whole entry): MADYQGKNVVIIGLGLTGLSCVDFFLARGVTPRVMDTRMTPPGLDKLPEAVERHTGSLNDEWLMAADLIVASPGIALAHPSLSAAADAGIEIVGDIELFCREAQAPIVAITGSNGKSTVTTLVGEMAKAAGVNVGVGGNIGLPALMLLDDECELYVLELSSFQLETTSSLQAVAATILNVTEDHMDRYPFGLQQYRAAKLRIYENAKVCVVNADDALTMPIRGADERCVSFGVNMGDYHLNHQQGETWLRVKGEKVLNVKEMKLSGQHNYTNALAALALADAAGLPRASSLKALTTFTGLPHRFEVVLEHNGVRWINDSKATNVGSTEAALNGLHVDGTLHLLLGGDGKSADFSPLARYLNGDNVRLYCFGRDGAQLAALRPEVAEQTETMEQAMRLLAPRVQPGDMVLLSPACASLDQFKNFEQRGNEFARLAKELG

| Compound | remaining activity at 100 µM (E. coli MurD) | remaining activity at 100 µM (E. coli MurF) | remaining activity at 100 µM (E. coli MurC; [1]) | further results |
| --- | --- | --- | --- | --- |
| CS(=O)(=O)CCNCc1coc(-c2ccc3ncnc(Nc4ccc(OCc5ccccc5)cc4)c3c2)c1 [GW566221B] | 69% | 82% | 69% | – |
| Cc1cc(O)cc(C)c1/C=C/c1cncc(C(N)=O)c1 [GW435821X] | 89% | 75% | 89% | – |
| Cc1ccc2c(-c3ccnc(Nc4ccc5c(c4)OCCO5)n3)c(-c3ccc(C(F)(F)F)cc3)nn2n1 [GW832467X] | 62% | 73% | – | remaining activity at 100 µM (E. coli MurC; [2]): 22% |
| CNC(=O)c1cncc(C=Cc2c(Cl)cccc2Cl)c1 [Compound 10] | – | – | – | RA (%) MurD (E. coli MurD): 80%; RA (%) MurF (E. coli MurF): 77%; RA (%) MurC (E. coli MurC): 81% |
| CCS(=O)(=O)c1ccc(OC)c(Nc2ncc(-c3ccccc3Cl)o2)c1 [GW622055X] | 65% | 80% | 74% | – |
| COc1cccc(-n2nc(C)c3c(N/N=C(\C)c4ccncc4)ncnc32)c1 [GW809885X] | 74% | 100% | 76% | – |
| COc1ccc(-c2ccncc2)cc1C(N)=O [GSK605714A] | 91% | 90% | 86% | – |
| COc1ccc2ncn(-c3cc(O[C@H](C)c4ccccc4C(F)(F)F)c(C(N)=O)s3)c2c1 [GSK317315A] | 47% | 51% | 53% | – |
| SB-675259-M | – | – | – | RA [%] at 100 µM MurD (E. coli MurD): 80; RA [%] at 100 µM MurF (E. coli MurF): 100%; RA [%] at 100 µM MurC (E. coli MurC; Table S1, PKIS screening): 72% |
| Fc1ccc(-c2ncn(C3CCNCC3)c2-c2ccnc(Oc3ccc4c(c3)OCO4)n2)cc1 [SB-250715] | 65% | 85% | – | remaining activity at 100 µM (E. coli MurC; [2]): 51% |
| Cc1cc(O)cc(C)c1C=Cc1cncc(-c2nn[nH]n2)c1 [Compound 7] | – | – | – | RA (%) MurD (E. coli MurD): 91%; RA (%) MurF (E. coli MurF): 90%; RA (%) MurC (E. coli MurC): 70% |
| OCCCNc1nccc(-c2c(-c3ccc(F)cc3)nn3cc(C(F)(F)F)ccc23)n1 [GW569293E] | 89% | 72% | 54% | – |
| CC(C)c1ccc(-c2cc(-c3c[nH]nc3-c3ccccn3)ccn2)cc1 [GW682841X] | 85% | 88% | 78% | – |
| COc1cccc(-n2ncc3c(N/N=C/c4ccc(C)cc4)ncnc32)c1 [GW829877X] | 85% | 76% | 70% | – |
| CCn1c(-c2nonc2N)nc2c(C#CC(C)(C)O)ncc(OCC3CCNCC3)c21 [GSK554170A] | 89% | 96% | 85% | – |
| CN1CCN(Cc2ccc(-c3cc4ncnc(Nc5ccc(OCc6cccc(F)c6)c(Cl)c5)c4s3)o2)CC1 [GW784684X] | 52% | 56% | 20% | – |
| NS(=O)(=O)c1ccc(NN=C2C(=O)Nc3ccc(C(=O)NCc4ccncc4)cc32)cc1 [GW300657X] | 96% | 85% | 75% | – |
| CC1=C(C(=O)Nc2ccc3[nH]ncc3c2)C(c2ccc(F)cc2)NC(=O)N1 (stereo not drawn) [GSK180736A] | 79% | 85% | 80% | – |
| CCn1c(-c2nonc2N)nc2ccncc21 [SB-738561] | 58% | 100% | 78% | – |
| O=S(=O)(CCOCc1ccc(-c2ccc3ncnc(Nc4ccc(OCc5cccc(F)c5)c(Cl)c4)c3c2)o1)c1ccccc1 [GW615311X] | 91% | 100% | 97% | – |
| COc1cc2ncn(-c3cc(OCc4ccccc4S(C)(=O)=O)c(C#N)s3)c2cc1OC [GSK319347A] | 100% | 75% | 59% | – |
| CN(c1ccc(NC(=O)Nc2ccc(OC(F)(F)F)cc2)cc1)c1ccnc(Nc2cccc(S(N)(=O)=O)c2)n1 [GW806742X] | 92% | 93% | 64% | – |
| Cc1cc(O)cc(C)c1/C=C/c1cncc(-c2nn[nH]n2)c1 [GW441806A] | 91% | 90% | 70% | – |

| Compound | remaining activity at 100 µM (E. coli MurD) | remaining activity at 100 µM (E. coli MurF) | remaining activity at 100 µM (E. coli MurC; [1]) | further results |
| --- | --- | --- | --- | --- |
| NC(=O)Cc1ccccc1Oc1nccc(-c2c(-c3ccc(F)cc3)ncn2C2CCNCC2)n1 [SB-264865] | 82% | 98% | 66% | – |
| Cn1cc(C=C2C(=O)Nc3cccnc32)c2ccccc21 [GW441756X] | 99% | 89% | 75% | – |
| NS(=O)(=O)c1cccc(-c2cc3ccncc3cc2OCc2ccccc2)c1 [GSK980961A] | 86% | 66% | 80% | – |
| COC(=O)c1ccc2c(c1)C(=Cc1cc(Br)c(O)c(Br)c1)C(=O)N2 [GW405841X] | 82% | 75% | 93% | – |
| O=C1Nc2ccc(-c3cccnc3)cc2C1=Cc1cc(Br)c(O)c(Br)c1 [GW429374A] | 51% | 16% | 30% | – |
| O=C(O[C@H]1CN[C@H](C#Cc2cc3ncnc(Nc4ccc5c(cnn5Cc5ccccc5)c4)c3s2)C1)N1CCOCC1 [GSK200398A] | 61% | 60% | 52% | – |
| CCn1c(-c2nonc2N)nc2cncc(C(=O)N3CC[C@H](N)C3)c21 [SB-772077-B] | – | – | – | RA [%] at 100 µM MurD (E. coli MurD): 90; RA [%] at 100 µM MurF (E. coli MurF): 80%; RA [%] at 100 µM MurC (E. coli MurC; Table S1, PKIS screening): 77% |
| CC1=C(C(=O)Nc2ccc3[nH]ncc3c2)C(c2ccc3ccccc3c2)CC(=O)N1 (stereo not drawn) [GSK270822A] | 81% | 68% | 66% | – |
| NS(=O)(=O)c1ccc(N/N=C2\C(=O)Nc3ccc(Cl)cc32)cc1 [GW280670X] | 99% | 76% | 100% | – |
| CNC(=O)c1cncc(C=Cc2c(C)cccc2C)c1 [Compound 9] | – | – | – | RA (%) MurD (E. coli MurD): 83%; RA (%) MurF (E. coli MurF): 54%; RA (%) MurC (E. coli MurC): 85% |
| CS(=O)(=O)CCNCc1ccc(-c2ccc3ncnc(Nc4ccc(OCc5cccc(C(F)(F)F)c5)cc4)c3c2)o1 [GW567808A] | 34% | 100% | 56% | – |
| Nc1nccc(-c2c(-c3ccc(F)cc3)ncn2C2CCNCC2)n1 [SB-220025-R#3] | – | – | – | RA [%] at 100 µM MurD (E. coli MurD): 87; RA [%] at 100 µM MurF (E. coli MurF): 100%; RA [%] at 100 µM MurC (E. coli MurC; Table S1, PKIS screening): 81% |
| Cc1ccc2c(c1)C(=NNc1ccc(S(N)(=O)=O)cc1)C(=O)N2 [GW275944X] | 87% | 83% | 92% | – |
| NS(=O)(=O)c1cccc(N/C=C2\C(=O)Nc3ccccc32)c1 [GW275616X] | 88% | 83% | 84% | – |
| NS(=O)(=O)c1ccc(N/N=C2\C(=O)Nc3ccc(-c4cnco4)cc32)cc1 [GW276655X] | 73% | 22% | 84% | – |
| N#Cc1c(NC(=O)c2ccccc2F)sc2c1CCCC2 [GW572738X] | 91% | 100% | 88% | – |
| FC(F)(F)c1cccc(Nc2nccc(-c3cnn4nc(-c5ccccc5)ccc34)n2)c1 [GW819077X] | 63% | 58% | 50% | – |
| CS(=O)(=O)Nc1ccc(N/C=C2\C(=O)Nc3ccccc32)cc1 [GW278681X] | 89% | 77% | 71% | – |
| COC(=O)Nc1nc2ccc(Oc3ccc(NC(=O)Nc4cccc(Cl)c4)cc3)cc2[nH]1 [GW589961A] | 81% | 83% | 77% | – |
| COc1cc(Nc2nccc(-c3cnn4ncccc34)n2)cc(OC)c1 [GW801372X] | 88% | 80% | 94% | – |
| COc1cc(C=NNc2ncnc3c2cnn3Cc2ccccc2)ccc1O [GW643971X] | 78% | 25% | 56% | – |
| CN1CCN(CCCNc2nc3ccc(Oc4ccc(NC(=O)Nc5cc(C(F)(F)F)ccc5F)cc4)cc3[nH]2)CC1 [GW700494A] | 73% | 95% | 99% | – |
